{"source": "patent US11098058B2", "about": "“Bicyclic ketone compounds and methods of use thereof” (Genentech, Inc., priority 2017, dated 2021)"}
{"target": "human RIP1 kinase domain (2-375) (Homo sapiens (Human), UniProt Q13546)", "sequence (Q13546 2-375)": "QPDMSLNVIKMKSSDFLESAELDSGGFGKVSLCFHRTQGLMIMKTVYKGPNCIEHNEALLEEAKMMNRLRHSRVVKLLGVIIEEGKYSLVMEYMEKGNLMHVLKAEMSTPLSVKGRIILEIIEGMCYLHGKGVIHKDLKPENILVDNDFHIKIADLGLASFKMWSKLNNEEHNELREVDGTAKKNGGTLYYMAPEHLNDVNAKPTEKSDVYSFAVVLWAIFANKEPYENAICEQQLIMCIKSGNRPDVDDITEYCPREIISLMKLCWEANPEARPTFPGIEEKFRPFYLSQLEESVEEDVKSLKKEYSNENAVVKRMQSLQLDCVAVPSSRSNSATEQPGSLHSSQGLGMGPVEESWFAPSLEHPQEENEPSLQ", "conditions": "RIP1 kinase inhibition, tight-binding apparent Ki; 50 nM enzyme, 50 μM ATP, 2 hours incubation", "units": {"Ki": "nM"}, "procedure": "RIP1 Kinase Inhibition Assays (Biochemical Assay)\nThe ability of the receptor interacting protein kinase (RIPK1) to catalyze the hydrolysis of adenosine-5′-triphosphate (ATP) is monitored using the Transcreener ADP (adenosine-5′-diphosphate) assay (BellBrook Labs). Purified human RIP1 kinase domain (2-375) (50 nM) derived from a baculovirus-infected insect cell expression system is incubated with test compounds for 2 hours in 50 mM Hepes buffer (pH 7.5) containing 30 mM MgCl2, 1 mM dithiothreitol, 50 μM ATP, 0.002% Brij-35, and 0.5% dimethyl sulfoxide (DMSO). […] The tracer bound to the antibody is displaced by the ADP generated during the RIP1K reaction, which causes a decrease in fluorescence polarization that is measured by laser excitation at 633 nm with a FP microplate reader M1000. Fractional activity was plotted against test article concentration. Using Genedata Screener software (Genedata; Basel, Switzerland), the data were fit to the tight-binding apparent inhibition constant (Ki^app) Morrison equation [Williams, J. W. and Morrison, J. F. (1979) The kinetics of reversible tight-binding inhibition. […] The following equation was used to calculate fractional activity and Ki^app:\n[formula] where [E]T and [I]T are the total concentrations of active enzyme and test article, respectively."}
{"smiles": "O=C(c1nc2n(n1)[C@H](c1ccccc1Cl)C[C@@H]2F)C1CC1", "note": "[Example 100, cyclopropyl-[(5S,7S)-5-(2-chlorophenyl)-7-fluoro-6,7-dihydro-5H-pyrrolo[1,2-b][1,2,4]triazol-2-yl]methanone]", "Ki": 3.5}
{"smiles": "O=C(c1nc2n(n1)[C@H](c1cc(F)ccc1F)C[C@@H]2F)C1CC1", "note": "[Example 101, cyclopropyl-[(5S,7S)-5-(2,5-difluorophenyl)-7-fluoro-6,7-dihydro-5H-pyrrolo[1,2-b][1,2,4]triazol-2-yl]methanone]", "Ki": 3.6}
{"smiles": "O=C(c1nc2n(n1)C(c1ccccc1)CCC2)C1CC1", "note": "(stereo not shown) [Example 145, cyclopropyl-(5-phenyl-5,6,7,8-tetrahydro-[1,2,4]triazolo[1,5-a]pyridin-2-yl)methanone]", "Ki": 260}
{"smiles": "Cc1oncc1C1CC(F)c2nc(C(=O)C3CC3)nn21", "note": "(stereo not shown) [Example 153, cyclopropyl(7-fluoro-5-(5-methylisoxazol-4-yl)-6,7-dihydro-5H-pyrrolo[1,2-b][1,2,4]triazol-2-yl)methanone]", "Ki": 380}
{"smiles": "Cn1cc(Cl)c([C@@H]2C[C@H](F)c3nc(C(=O)C4CC4)nn32)n1", "note": "[Example 154, ((5S,7S)-5-(4-chloro-1-methyl-1H-pyrazol-3-yl)-7-fluoro-6,7-dihydro-5H-pyrrolo[1,2-b][1,2,4]triazol-2-yl)(cyclopropyl)methanone]", "Ki": 32}
{"smiles": "Cn1cc(Cl)c([C@@H]2C[C@@H](F)c3nc(C(=O)C4CC4)nn32)n1", "note": "[Example 155, ((5S,7R)-5-(4-chloro-1-methyl-1H-pyrazol-3-yl)-7-fluoro-6,7-dihydro-5H-pyrrolo[1,2-b][1,2,4]triazol-2-yl)(cyclopropyl)methanone]", "Ki": 970}
{"smiles": "O=C(c1nc2n(n1)C(c1ccccc1)CC2)C1(Cn2cccn2)CC1", "note": "(stereo not shown) [Example 158, (5-phenyl-6,7-dihydro-5H-pyrrolo[1,2-b][1,2,4]triazol-2-yl)-[1-(pyrazol-1-ylmethyl)cyclopropyl]methanone]", "Ki": 650}
